The record followed here is US4588720A, “Imidazo[1,2-a]pyrimidines” (Roussel Uclaf, priority 1982, dated 1986).

Usually IC50 stands for the point on the concentration scale where inhibition reaches its midpoint.

Assay [1] has as its target benzodiazepine receptors. The assay can be described thus: Affinity for benzodiazepine receptors ([3H] flunitrazepam radioreceptor binding). Conditions: inhibition of specific binding of 0.6 nM [^3 H] flunitrazepam, rat forebrain membrane preparations; read-out: Receptor Binding (IC50 nM). On the procedure:
A. Affinity for benzodiazepine receptors
The affinity of the compounds for benzodiazepine receptors was assessed using the radioligand [^3 H] flunitrazepam and modifications of the original radioreceptor binding method of Squares and Braestrup (Nature, Vol. 266 (1977) p. 732). The values given in Table VI are nanomolar concentrations of test compound which inhibited the specific binding of 0.6 nM[^3 H] flunitrazepam to rat forebrain membrain preparations by 50% (IC50 nM).

The nature of assay [2]: Anxiolytic activity, Geller conflict method (Geller and Seifter). Conditions: po; modified Geller and Seifter conflict method; read-out: Geller Conflict (MED mg/kg po), minimum effective dose at which there was an observed increase in shocks above control. Format: in vivo. The procedure:
Screening for anxiolytic activity was carried out by modifications of the conflict method of Geller and Seifter (Psychopharmacologia, (1960), Volume I, p. 482). The values given in Table VI are the minimum effective doses at which there was an observed increase in shocks above control (MED me/kg po).

Consider `CCc1c(OC)nc2nc(C(=O)c3ccccc3)cn2c1CC` [Example 31, [5,6-Diethyl-7-methoxyimidazo[1,2-a]pyrimidin-2-yl]phenylmethanone], for which the IC50 in assay [1] came to 107 nM. Also, the minimal effective dose in assay [2] came to 2 mg/kg.
For `CCCCc1c(OC)nc2nc(C(=O)c3ccccc3)cn2c1C` [Example 30, [6-n-Butyl-7-methoxy-5-methylimidazo[1,2-]pyrimidin-2-yl]phenylmethanone] the same measures were 42 nM and 2 mg/kg.
As for `CCc1cc(OC)nc2nc(C(=O)c3ccccc3)cn12` [Example 15, (5-Ethyl-7-methoxyimidazo[1,2-a]pyrimidin-2-yl)phenylmethanone], the IC50 in assay [1] was determined as 295 nM. Also, the minimal effective dose in assay [2] is 2 mg/kg.
For `COc1nc2nc(C(=O)c3ccccc3)cn2c(C)c1C` [Example 7, (7-Methoxy-5,6-dimethylimidazo[1,2-a]pyrimidin-2-yl)phenylmethanone], the IC50 in assay [1] stood at 235 nM. Moreover, the minimal effective dose in assay [2] turned out to be 50 mg/kg.
For `COc1nc2nc(C(=O)c3ccccc3)cn2c(C)c1CC1CC1` [Example 23, [6-Cyclopropylmethyl-7-methoxy-5-methylimidazo[1,2-a]pyrimidin-2-yl]phenylmethanone] the same measures were 30 nM and 10 mg/kg.
Regarding `CCc1c(C)c(OC)nc2nc(C(=O)c3ccccc3)cn12` [Example 29, [5-Ethyl-7-methoxy-6-methylimidazo[1,2-a]pyrimidin-2-yl]phenylmethanone], in assay [1], the IC50 worked out at 1000 nM. In addition, the minimal effective dose in assay [2] is 20 mg/kg.
Taken in the same sequence, the figures for `CSc1cc(C)n2cc(C(=O)c3ccccc3)nc2n1` [Example 21, [5-Methyl-7-(methylthio)imidazo[1,2-a]pyrimidin-2-yl]phenylmethanone] were 190 nM and 50 mg/kg.
On to `COc1nc2nc(C(=O)c3ccccc3)cn2c(C)c1CC1CCCCC1` [Example 24, [6-Cyclohexylmethyl-7-methoxy-5-methylimidazo[1,2-a]pyrimidin-2-yl]phenylmethanone], for which, in assay [1], the IC50 worked out at 250 nM. Besides, the minimal effective dose in assay [2] stood at 50 mg/kg.
On to `COc1nc2nc(C(=O)c3ccccc3)cn2c2c1CCC2` [Example 4, (5-Methoxycyclopenta[e]imidazol[1,2-a]pyrimidin-2-yl)-phenylmethanone], for which the IC50 in assay [1] amounted to 200 nM. Further, in assay [2], the minimal effective dose came out at 20 mg/kg.
As for `COc1nc2nc(C(=O)c3ccccc3)cn2cc1C` [Example 42, [7-Methoxy-6-methylimidazo[1,2-a]pyrimidin-2-yl]phenylmethanone], the IC50 in assay [1] amounted to 5900 nM. The minimal effective dose in assay [2] came out at 50 mg/kg.
With `COc1nc2nc(C(=O)c3ccccc3)cn2c(C)c1Cc1ccccc1` [Example 9, (6-Benzyl-7-methoxy-5-methylimidazo[1,2-a]pyrimidin-2-yl)phenylmethanone], the IC50 in assay [1] was 45 nM. Further, in assay [2], the minimal effective dose amounted to 50 mg/kg.
As for `CCCCc1cn2cc(C(=O)c3ccccc3)nc2nc1OC` [Example 41, [6-n-Butyl-7-methoxyimidazo[1,2-a]pyrimidin-2-yl]phenylmethanone], in assay [1], the IC50 worked out at 300 nM. For the same compound, in assay [2], the minimal effective dose was 50 mg/kg.
For `CCCc1c(C)c(OC)nc2nc(C(=O)c3ccccc3)cn12` [Example 26, [7-Methoxy-6-methyl-5-propylimidazo[1,2-a]pyrimidin-2-yl]phenylmethanone], the IC50 in assay [1] was 740 nM. Also, the minimal effective dose in assay [2] came out at 20 mg/kg.
`CCCCc1c(C)c(OC)nc2nc(C(=O)c3ccccc3)cn12` [Example 39, [5-n-Butyl-7-methoxy-6-methylimidazo[1,2-a]pyrimidin-2-yl]phenylmethanone]: the IC50 in assay [1] came out at 400 nM. The minimal effective dose in assay [2] turned out to be 50 mg/kg.
As to `CCCc1c(CC)c(OC)nc2nc(C(=O)c3ccccc3)cn12` [Example 27, [6-Ethyl-7-methoxy-5-n-propylimidazo[1,2-a]pyrimidin-2-yl]phenylmethanone], the IC50 in assay [1] was found to be 470 nM. Besides, in assay [2], the minimal effective dose came out at 50 mg/kg.
With `CCc1c(SC)nc2nc(C(=O)c3ccccc3)cn2c1C` [Example 49, [6-ethyl-5-methyl-7-(methylthio)imidazo[1,2-a]pyrimidin-2-yl]phenylmethanone], the IC50 in assay [1] is 12 nM. For the same compound, the minimal effective dose in assay [2] amounted to 2 mg/kg.
As for `COc1ccn2cc(C(=O)c3ccccc3)nc2n1` [Example 28, [7-Methoxyimidazo[1,2-a]pyrimidin-2-yl]phenylmethanone], the IC50 in assay [1] is 8500 nM. Besides, the minimal effective dose in assay [2] stood at 50 mg/kg.
`CCCCc1cc(OC)nc2nc(C(=O)c3ccccc3)cn12` [Example 43, [5-n-Butyl-7-methoxyimidazo[1,2-a]pyrimidin-2-yl]phenylmethanone]: the half-inhibitory concentration (IC50) in assay [1] is 340 nM. Moreover, in assay [2], the minimal effective dose turned out to be 10 mg/kg.
In the case of `CCc1c(OC)nc2nc(C(=O)c3ccccc3Cl)cn2c1C` [Example 57, (6-ethyl 7-methoxy 5-methylimidazo/1,2-a/pyrimidin-2-yl)(2-chlorophenyl)methanone], the IC50 in assay [1] worked out at 100 nM. Besides, in assay [2], the minimal effective dose was 50 mg/kg.
Taken in the same sequence, the figures for `CCCCc1c(OC)nc2nc(C(=O)c3ccccc3)cn2c1CC` [Example 36, [6-n-Butyl-5-ethyl-7-methoxy-imidazo[1,2-a]pyrimidin-2-yl]phenylmethanone] were 34 nM and 10 mg/kg.
For `CSc1nc2nc(C(=O)c3ccccc3)cn2c2c1CCCC2` [Example 12, [5-(Methylthio)-6,7,8,9-tetrahydroimidazo[1,2-a]quinazolin-2-yl]phenylmethanone] the same measures were 8.5 nM and 10 mg/kg.
Taken in the same sequence, the figures for `COc1nc2nc(C(=O)c3ccccc3)cn2c2c1CCC(C)C2` (stereo not shown) [Example 17, (5-Methoxy-8-methyl-6,7,8,9-tetrahydroimidazo[1,2-a]quinazolin-2-yl]phenylmethanone] were 135 nM and 10 mg/kg.
As to `CCCCc1c(CC)c(OC)nc2nc(C(=O)c3ccccc3)cn12` [Example 45, [5-n-Butyl-6-ethyl-7-methoxyimidazo[1,2-a]pyrimidin-2-yl]phenylmethanone], in assay [1], the IC50 was 500 nM. The minimal effective dose in assay [2] was determined as 50 mg/kg.
